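Values below derive from 48-hour exposures of cells grown in 96-well plates, with endpoints linearly interpolated between the two concentrations bracketing the appropriate inhibition level. Abbreviation: GI50, concentration required for 50% inhibition of growth.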 Active and inactive are the calls of the source. Rule as the data show it: active = GI50 up to about 1.1 µM and inactive = higher.
Tests used:
Test in all cases: growth of human tumour cells (NCI), 48 h
[1] = system: SF-268
[2] = system: TK-10
[3] = system: OVCAR-5
[4] = system: HT-29
[5] = system: HCT-116
[6] = system: COLO 205
[7] = system: HL-60
[8] = system: UACC-62
[9] = system: 786-0
[10] = system: HCC 2998
[11] = system: SR
[12] = system: SF-539
[13] = system: RPMI-8226
[14] = system: K562
[15] = system: SW-620
[16] = system: MDA-N
[17] = system: SNB-75

COc1ccc(CNC(=O)[C@H](Cc2ccc(O)cn2)NC(C)=O)cc1
GI50 [1]: > 100 µM (inactive)
GI50 [2]: > 100 µM (inactive)
GI50 [3]: > 100 µM (inactive)
GI50 [4]: > 100 µM (inactive)
GI50 [5]: 89.3 µM (inactive)
GI50 [6]: > 100 µM (inactive)
GI50 [7]: > 100 µM (inactive)
GI50 [8]: > 100 µM (inactive)
GI50 [9]: > 100 µM (inactive)
GI50 [10]: > 100 µM (inactive)
GI50 [11]: > 100 µM (inactive)
GI50 [12]: > 100 µM (inactive)
GI50 [13]: 64.9 µM (inactive)
GI50 [14]: > 100 µM (inactive)
GI50 [15]: > 100 µM (inactive)
GI50 [16]: > 100 µM (inactive)

S=C(/N=c1/sc(Nc2ccccc2)nc2sc3c(c12)CCCC3)Nc1ccccc1
GI50 [1]: > 62.5 µM (inactive)
GI50 [2]: > 62.5 µM (inactive)
GI50 [3]: > 62.5 µM (inactive)
GI50 [4]: > 62.5 µM (inactive)
GI50 [5]: > 62.5 µM (inactive)
GI50 [6]: > 62.5 µM (inactive)
GI50 [7]: > 62.5 µM (inactive)
GI50 [8]: > 62.5 µM (inactive)
GI50 [9]: > 62.5 µM (inactive)
GI50 [10]: > 62.5 µM (inactive)
GI50 [11]: > 62.5 µM (inactive)
GI50 [13]: 62.2 µM (inactive)
GI50 [14]: > 62.5 µM (inactive)
GI50 [15]: > 62.5 µM (inactive)
GI50 [16]: > 62.5 µM (inactive)

O=C1/C(=C/c2ccc(Cl)cc2)CSC/C1=C\c1ccc(Cl)cc1
GI50 [1]: 5.96 µM (inactive)
GI50 [2]: 3.18 µM (inactive)
GI50 [3]: 2.19 µM (inactive)
GI50 [4]: 1.97 µM (inactive)
GI50 [5]: 1.76 µM (inactive)
GI50 [6]: 3.02 µM (inactive)
GI50 [7]: 1.34 µM (inactive)
GI50 [8]: 1.51 µM (inactive)
GI50 [9]: 3.08 µM (inactive)
GI50 [10]: 2.07 µM (inactive)
GI50 [11]: 2.69 µM (inactive)
GI50 [12]: 2.76 µM (inactive)
GI50 [13]: 0.798 µM (active)
GI50 [14]: 3.08 µM (inactive)
GI50 [15]: 3.15 µM (inactive)
GI50 [16]: 3.06 µM (inactive)

O=C1/C(=C/c2cccc(Br)c2)CSC/C1=C\c1cccc(Br)c1
GI50 [1]: 5.33 µM (inactive)
GI50 [2]: 5.69 µM (inactive)
GI50 [3]: 4.88 µM (inactive)
GI50 [4]: 2.29 µM (inactive)
GI50 [5]: 1.78 µM (inactive)
GI50 [6]: 2.9 µM (inactive)
GI50 [7]: 1.92 µM (inactive)
GI50 [8]: 1.65 µM (inactive)
GI50 [9]: 3.45 µM (inactive)
GI50 [10]: 1.78 µM (inactive)
GI50 [11]: 2 µM (inactive)
GI50 [12]: 2.53 µM (inactive)
GI50 [13]: 0.537 µM (active)
GI50 [14]: 2.36 µM (inactive)
GI50 [15]: 2.73 µM (inactive)
GI50 [16]: 2.65 µM (inactive)

Cc1ncc([N+](=O)[O-])n1CCNC(=O)CCCCCn1ccnc1[N+](=O)[O-]
GI50 [1]: > 100 µM (inactive)
GI50 [3]: > 100 µM (inactive)
GI50 [4]: > 100 µM (inactive)
GI50 [5]: > 100 µM (inactive)
GI50 [6]: 43.6 µM (inactive)
GI50 [7]: > 100 µM (inactive)
GI50 [8]: > 100 µM (inactive)
GI50 [9]: > 100 µM (inactive)
GI50 [10]: > 100 µM (inactive)
GI50 [11]: > 100 µM (inactive)
GI50 [12]: > 100 µM (inactive)
GI50 [14]: > 100 µM (inactive)
GI50 [17]: > 100 µM (inactive)
GI50 [15]: > 100 µM (inactive)
GI50 [16]: > 100 µM (inactive)

COc1cc(/C=C2/SC(c3ccccc3)N(c3ccccc3Cl)C2=O)cc(OC)c1OC (centres undefined)
GI50 [1]: 41.1 µM (inactive)
GI50 [2]: 69.5 µM (inactive)
GI50 [3]: 69.5 µM (inactive)
GI50 [5]: 23.7 µM (inactive)
GI50 [6]: 23.3 µM (inactive)
GI50 [7]: 16.5 µM (inactive)
GI50 [8]: 37.9 µM (inactive)
GI50 [9]: 25.9 µM (inactive)
GI50 [10]: 88.1 µM (inactive)
GI50 [11]: 23.8 µM (inactive)
GI50 [12]: 19.7 µM (inactive)
GI50 [13]: 21.7 µM (inactive)
GI50 [14]: 31.2 µM (inactive)
GI50 [15]: 37.8 µM (inactive)
GI50 [16]: 28 µM (inactive)

COc1cc(C(c2c(O)c3ccccc3oc2=O)c2c(O)c3ccccc3oc2=O)cc(Br)c1O
GI50 [1]: 13.8 µM (inactive)
GI50 [2]: 16.1 µM (inactive)
GI50 [3]: 23.5 µM (inactive)
GI50 [4]: 20 µM (inactive)
GI50 [5]: 17.5 µM (inactive)
GI50 [6]: 18.2 µM (inactive)
GI50 [7]: 27.7 µM (inactive)
GI50 [8]: 16 µM (inactive)
GI50 [9]: 17.7 µM (inactive)
GI50 [11]: 14 µM (inactive)
GI50 [12]: 15.6 µM (inactive)
GI50 [13]: 19.8 µM (inactive)
GI50 [14]: 30.3 µM (inactive)
GI50 [17]: 18.8 µM (inactive)
GI50 [15]: 20.6 µM (inactive)
GI50 [16]: 18.4 µM (inactive)

Source: ChEMBL document CHEMBL1201862, “PubChem BioAssay data set” (2004)
